According to PMC7156724, “Potent BRD4 inhibitor suppresses cancer cell-macrophage interaction” (Nature Communications, 2020):
Values joined by “and” are separate entries in the source; they are usually repeats but may differ in a detail not shown here. Equal entries are not always repeated. Where two headings read alike, the source gives them in different places.

Experiments:
A375 melanoma cells = assay: AlamarBlue assay, A375; format: cell-based, human; settings: for Cellular activity in melanoma cells (A375), alamarBlue: Fig.1g, replicates; for IC50: read-out: IC50, cellular activity in A375 (alamarBlue)
Experimental: (§1) 3. AlamarBlue assay. AlamarBlue was made by resazurin sodium salt (Sigma, Cat
(§2) # 199303) dissolved in PBS.
(§3) NCI-H211, MDA-MB231 and A375 cells were plated in 96-well plates at approximately 30% confluence and left overnight to adhere. In the following day, […]
(§4) of treatment, 10 μl AlamarBlue reagent (0.3 mg/ml) was added to each well, and after 18h, the florescence intensity in each well was measured using a top-reading fluorescent plate reader with excitation at 530 nm and emission at 590 nm. […]

BRD4 (BD1+BD2) = biological target: T1, BRD4 (BD1+BD2) (Homo sapiens, UniProt O60885); assay: BRD4 (BD1+BD2) TR-FRET binding assay; settings: for Biochemical activity against BRD4 (BD1 + BD2): Fig.1d, replicates
T1 construct: purchased BPS 32612
Description: 2. BRD4 binding assay. The inhibitory effects of NHWD-530, NHWD-540, NHWD- […]
(BPS, Cat # 32612) per manufacturer’s instructions. […]

[1] = system: MDA-MB231 triple negative breast cancer (TNBC) cells; assay: AlamarBlue assay, MDA-MB231; format: cell-based, human; settings: for Cellular activity in TNBCs (MDA-MB231), alamarBlue: Fig.1f, replicates
Experimental: as §1, §2, §3, §4

[2] = system: NCI-H211 small cell lung cancer (SCLC) cells; assay: AlamarBlue assay, NCI-H211; format: cell-based; settings: for Cellular activity in SCLCs (H211), alamarBlue: Fig.1e, replicates
Experimental: as §1, §2, §3, §4

Structure (SMILES): CCNC(=O)C[C@@H]1N=C(c2ccc(Cl)cc2)c2cc(OC)ccc2-n2c(C)nnc21 [GSK-525762]
- Cellular activity in melanoma cells (A375), alamarBlue (A375 melanoma cells; concentration(nM) 0.21442, listed as GSK-525672): 0.7 and 0.7152
- Cellular activity in melanoma cells (A375), alamarBlue (A375 melanoma cells; concentration(nM) 0.31236, listed as GSK-525672): 2.411 and 2.845
- Cellular activity in melanoma cells (A375), alamarBlue (A375 melanoma cells; concentration(nM) 0.4103, listed as GSK-525672): 1.577 and 2.366
- Cellular activity in melanoma cells (A375), alamarBlue (A375 melanoma cells; concentration(nM) 0.6032, listed as GSK-525672): 8.146 and 9.5447
- Cellular activity in melanoma cells (A375), alamarBlue (A375 melanoma cells; concentration(nM) 1.2043, listed as GSK-525672): 25.5205 and 30.3178
- Cellular activity in melanoma cells (A375), alamarBlue (A375 melanoma cells; concentration(nM) 1.8024, listed as GSK-525672): 60.9618 and 63.2464
- Cellular activity in melanoma cells (A375), alamarBlue (A375 melanoma cells; concentration(nM) 2.4, listed as GSK-525672): 99.5135 and 98.5975
- Cellular activity in melanoma cells (A375), alamarBlue (A375 melanoma cells; concentration(nM) 3, listed as GSK-525672): 100.155 and 100.899
- IC50 (A375 melanoma cells; Homo sapiens, A-375, nM printed in b8, the picture prints no unit): 35.6 nM

Structure (SMILES): COc1cc2c(cc1-c1c(C)noc1C)ncc1[nH]c(=O)n([C@H](C)c3ccccn3)c12 [I-BET151]
- Cellular activity in melanoma cells (A375), alamarBlue (A375 melanoma cells; concentration(nM) 0.21442): 0.1541 and 0.2687
- Cellular activity in melanoma cells (A375), alamarBlue (A375 melanoma cells; concentration(nM) 0.31236): 1.39 and 1.537
- Cellular activity in melanoma cells (A375), alamarBlue (A375 melanoma cells; concentration(nM) 0.4103): 1.399 and 1.952
- Cellular activity in melanoma cells (A375), alamarBlue (A375 melanoma cells; concentration(nM) 0.6032): 7.8413 and 3
- Cellular activity in melanoma cells (A375), alamarBlue (A375 melanoma cells; concentration(nM) 1.2043): 31.4642 and 32.5943
- Cellular activity in melanoma cells (A375), alamarBlue (A375 melanoma cells; concentration(nM) 1.8024): 46.9054 and 45.198
- Cellular activity in melanoma cells (A375), alamarBlue (A375 melanoma cells; concentration(nM) 2.4): 80.0356 and 78.8893
- Cellular activity in melanoma cells (A375), alamarBlue (A375 melanoma cells; concentration(nM) 3): 99.9805 and 100.846
- IC50 (A375 melanoma cells; nM): 55.5 nM

Structure (SMILES): Cc1nnn(C)c1-c1cnc2c3c4c(ccc3n([C@H](c3ccccc3)C3CCOCC3)c2c1)cnn4C [NHWD-860]
- Biochemical activity against BRD4 (BD1 + BD2) (BRD4 (BD1+BD2); concentration(nM) 0.0021442): 1.269 and 4.138
- Biochemical activity against BRD4 (BD1 + BD2) (BRD4 (BD1+BD2); concentration(nM) 0.061236): 4.399 and 1.862
- Biochemical activity against BRD4 (BD1 + BD2) (BRD4 (BD1+BD2); concentration(nM) 0.103): 3 and 0.4387
- Biochemical activity against BRD4 (BD1 + BD2) (BRD4 (BD1+BD2); concentration(nM) 0.59176): 12.3903 and 19.5044
- Biochemical activity against BRD4 (BD1 + BD2) (BRD4 (BD1+BD2); concentration(nM) 1.19382): 74.9941 and 70.1565
- Biochemical activity against BRD4 (BD1 + BD2) (BRD4 (BD1+BD2); concentration(nM) 1.79588): 100.036 and 99.751
- Biochemical activity against BRD4 (BD1 + BD2) (BRD4 (BD1+BD2); concentration(nM) 2.39794): 101.174 and 100.605
- Biochemical activity against BRD4 (BD1 + BD2) (BRD4 (BD1+BD2); concentration(nM) 3): 100.889 and 100.32
- IC50 (BRD4 (BD1+BD2); average IC50, nM, read-out: IC50, biochemical activity against BRD4 (BD1 + BD2)): 9.33 ± 0.97 nM
- Cellular activity in TNBCs (MDA-MB231), alamarBlue ([1]; concentration 0.15): 14.34 and 13.82
- Cellular activity in TNBCs (MDA-MB231), alamarBlue ([1]; concentration 0.6): 35.72 and 34.62
- Cellular activity in TNBCs (MDA-MB231), alamarBlue ([1]; concentration 1): 67.92 and 71.9
- Cellular activity in TNBCs (MDA-MB231), alamarBlue ([1]; concentration 1.5): 82.83 and 82.68
- Cellular activity in TNBCs (MDA-MB231), alamarBlue ([1]; concentration 2): 87.1 and 88.94
- Cellular activity in TNBCs (MDA-MB231), alamarBlue ([1]; concentration 2.5): 87.8 and 87.94
- Cellular activity in TNBCs (MDA-MB231), alamarBlue ([1]; concentration 3): 90.46 and 89.59
- Cellular activity in TNBCs (MDA-MB231), alamarBlue ([1]; concentration -0.3): 5.89 and 8.33
- Cellular activity in TNBCs (MDA-MB231), alamarBlue ([1]; concentration -0.9): 3.7 and 7.12
- IC50 ([1]; Homo sapiens, MDA-MB-231, 72 h, 72 h treatment, nM, read-out: IC50, cellular activity in MDA-MB231 (alamarBlue)): 7.08 ± 0.85 nM
- Cellular activity in SCLCs (H211), alamarBlue ([2]; concentration 0.0169701): 1.74 and 11.45
- Cellular activity in SCLCs (H211), alamarBlue ([2]; concentration 0.0398488): 4.56 and 9.08
- Cellular activity in SCLCs (H211), alamarBlue ([2]; concentration 0.137272): 4.2 and 14.84
- Cellular activity in SCLCs (H211), alamarBlue ([2]; concentration 0.614394): 15.53 and 29.79
- Cellular activity in SCLCs (H211), alamarBlue ([2]; concentration 1.09152): 68.35 and 72.54
- Cellular activity in SCLCs (H211), alamarBlue ([2]; concentration 1.56864): 88.44 and 89.49
- Cellular activity in SCLCs (H211), alamarBlue ([2]; concentration 2.04576): 90.64 and 90.52
- Cellular activity in SCLCs (H211), alamarBlue ([2]; concentration 3): 89.32 and 90.99
- Cellular activity in SCLCs (H211), alamarBlue ([2]; concentration column prints 2.52288): 89.13 and 90.21
- IC50 ([2]; Homo sapiens, NCI-H211, 72 h, 72 h treatment, nM, read-out: IC50, cellular activity in NCI-H211 (alamarBlue)): 8.06 ± 0.91 nM
